Columns and labels:
[1] = system: NCI-H460; assay: Antiproliferative activity against human NCI-H460 cells assessed as inhibition of cell growth by MTT assay; format: functional, cell-based
[2] = system: PC-9; assay: Antiproliferative activity against human PC-9 cells assessed as inhibition of cell growth by MTT assay; format: functional, cell-based
[3] = system: PC-9; assay: Antitumor activity against human PC-9 cells xenografted in NSG mouse model assessed as inhibition of tumor growth at 25 mg/kg, ip qd administered every day for 7 consecutive days relative to control; format: functional; conditions: PC-9, 168 h, time 7 day
[4] = system: A549; assay: Antiproliferative activity against human A549 cells assessed as inhibition of cell growth by MTT assay; format: functional, cell-based
[5] = system: 4T1; assay: Antitumor activity against mouse 4T1 cells overexpressing IDO1 implanted in BALB/c mouse model assessed as inhibition of tumor growth at 25 mg/kg, ip qd administered every day for 8 consecutive days and measured after 14 days relative to control; format: functional; conditions: 4T1, 336 h, time 14 day
[6] = system: NCI-H1975; assay: Antiproliferative activity against human NCI-H1975 cells assessed as inhibition of cell growth by MTT assay; format: functional, cell-based
[7] = system: B16-F10; assay: Antitumor activity against mouse B16-F10 cells implanted in melanoma mouse model assessed as inhibition of tumor growth at 20 mg/kg, po relative to control; format: functional
[8] = system: NCI-H211; assay: Antiproliferative activity against human NCI-H211 cells assessed as reduction in cell viability by MTS assay; format: functional, cell-based
[9] = system: MDA-MB-231; assay: Antiproliferative activity against human MDA-MB-231 cells assessed as reduction in cell viability by MTS assay; format: functional, cell-based
[10] = system: BT-474; assay: Antiproliferative activity against drug-sensitive human BT-474 cells assessed as inhibition of cell growth by MTT assay; format: functional, cell-based
[11] = system: MCF7; assay: Antiproliferative activity against drug-sensitive human MCF7 cells assessed as inhibition of cell growth by MTT assay; format: functional, cell-based
[12] = system: MDA-MB-231; assay: Antiproliferative activity against drug-sensitive human MDA-MB-231 cells assessed as inhibition of cell growth by MTT assay; format: functional, cell-based
[13] = system: SK-BR-3; assay: Antiproliferative activity against drug-sensitive human SK-BR-3 cells assessed as inhibition of cell growth by MTT assay; format: functional, cell-based
[14] = system: MCF7; assay: Antitumor activity against human MCF7 cells xenografted in mouse assessed as tumor growth inhibition by measuring T/C ratio at 25 mg/kg, iv; format: functional
[15] = Antiproliferative activity against human Tamoxifen-resistant MCF7 cells assessed as inhibition of cell growth by MTT assay; format: functional, cell-based
[16] = Plasma clearance in Albino mouse at 1.0 mg/kg, iv; format: ADME, organism-based
[17] = Antiproliferative activity against human Trastuzumab-resistant BT-474 cells assessed as inhibition of cell growth by MTT assay; format: functional, cell-based, Trastuzumab-resistant BT-474 cell
[18] = AUC(0 to t) in Albino mouse at 1.0 mg/kg, iv; format: ADME, organism-based; parameters: dose 1 mg/kg, route iv; conditions: in vivo
[19] = Elimination half life in Albino mouse plasma at 1.0 mg/kg, iv; format: ADME, organism-based; conditions: read-out: beta t1/2 (converted)
[20] = system: SGC-7901; assay: Antiproliferative activity against human SGC-7901 cells assessed as inhibition of cell growth by MTT assay; format: functional, cell-based
[21] = system: A549; assay: Antitumor activity against human A549 cells xenografted in Kunming mouse model assessed as inhibition of tumor growth at 20 mg/kg, iv administered twice daily for 2 weeks relative to control; format: functional; conditions: A549, 336 h
[22] = system: KYSE-150 cell line; assay: Antiproliferative activity against human KYSE-150 cells assessed as inhibition of cell growth incubated for 72 hrs by MTT assay; format: functional, cell-based; conditions: KYSE-150, 72 h, pooled result: one value given for 5 cell lines, strains, targets or settings
[23] = system: SGC-7901; assay: Antiproliferative activity against human SGC-7901 cells assessed as inhibition of cell growth incubated for 72 hrs by MTT assay; format: functional, cell-based; conditions: SGC-7901, 72 h
[24] = system: A549; assay: Antitumor activity against human A549 cells xenografted in zebrafish model assessed as reduction in tumor focal area at 2.5 uM relative to control; format: functional; parameters: scale not given: the % may be the effect or the level left
[25] = system: KYSE-450; assay: Antitumor activity against human KYSE-450 cells xenografted in nu/nu nude mouse model assessed as inhibition of tumor growth at 25 mg/kg, ip administered every day for 15 days relative to control; format: functional; conditions: KYSE-450, 360 h, time 15 day
[26] = system: NCI-H1650; assay: Antiproliferative activity against drug-sensitive human NCI-H1650 cells assessed as inhibition of cell growth incubated for 48 hrs by MTT assay; format: functional, cell-based; conditions: NCI-H1650, 48 h, pooled result: one value given for 9 cell lines, strains, targets or settings
[27] = system: MDA-MB-435; assay: Antitumor activity against GFP tagged bone metastatic variant of human MDA-MB-435 cells xenografted in athymic nu/nu mouse assessed as reduction in tumor growth at 10 mg/kg, ip administered thrice a week for 65 days relative to control; format: functional; parameters: scale not given: the % may be the effect or the level left; conditions: time 65 day
[28] = system: MDA-MB-231; assay: Antiproliferative activity against human MDA-MB-231 cells assessed as inhibition of cell growth incubated for 120 hrs by MTT assay; format: functional
[29] = system: MDA-MB-435; assay: Antitumor activity against GFP tagged bone metastatic variant of human MDA-MB-435 cells xenografted in athymic nu/nu mouse assessed as reduction in tumor growth at 1 mg/kg, ip administered thrice a week for 65 days relative to control; format: functional; parameters: scale not given: the % may be the effect or the level left; conditions: time 65 day
[30] = Inhibition of Rac activation in human MDA-MB-231 cells treated for 24 hrs by Western blot analysis; format: cell-based

## COCCOc1cc2ncnc(Nc3cccc(-c4cn(Cc5cc(Br)cc(Br)c5)nn4)c3)c2cc1OCCOC
[1]
  IC50: 3310 nM
[2]
  IC50: 3310 nM
[3]
  inhibition in vivo at 25 mg/kg: 90%
[4]
  IC50: 3310 nM
[5]
  inhibition in vivo at 25 mg/kg: 64%
[6]
  IC50: 3310 nM

## C/C(=C(/Cl)c1ccccc1)c1nnc(-c2cn(CCCOc3ccc(C(C)(C)C)cc3)nn2)o1
[7]
  inhibition in vivo at 20 mg/kg: 90%

## Cc1nnn(C)c1-c1cnc2c3cc4cnn(C)c4cc3n([C@H](c3ccccc3)C3CCOCC3)c2c1
[8]
  IC50: 1.99 nM
[9]
  IC50: 1.58 nM

## CCN1CCN(Cc2ccc(Nc3ncc(F)c(-c4cc(F)c5nc(C)n(C(C)C)c5c4)n3)nc2)CC1 [ABEMACICLIB]
[10]
  IC50: 153 nM
[11]
  IC50: 153 nM
[12]
  IC50: 153 nM
[13]
  IC50: 153 nM
[14]
  T/C: 0.51
[15]
  IC50: 153 nM
[16]
  clearance: 43 mL/min/kg
[17]
  IC50: 153 nM
[18]
  AUC(0-t): 487 ng·h/mL
[19]
  half-life: 1 h

## COc1cc2c(c(OC)c1OC)-c1ccc(OC)c(=O)cc1[C@@H](NC(C)=O)CC2 [COLCHICINE]
[4]
  IC50: 43 nM
[20]
  IC50: 43 nM

## C#Cc1cccc(Nc2ncnc3cc(OCCOC)c(OCCOC)cc23)c1 [ERLOTINIB]
[3]
  inhibition in vivo at 25 mg/kg: 90%
[5]
  inhibition in vivo at 25 mg/kg: 36%

## Cc1nnn(C)c1-c1cnc2c3ccc(C(C)(C)O)cc3n([C@H](c3ccccc3)C3CCOCC3)c2c1 [EZOBRESIB]
[8]
  IC50: 6.57 nM
[9]
  IC50: 4.97 nM

## O=c1[nH]cc(F)c(=O)[nH]1 [FLUOROURACIL]
[21]
  inhibition in vivo at 20 mg/kg: 64.7%
[22]
  IC50: 7730 nM
[23]
  IC50: 26300 nM

## COc1cc2ncnc(Nc3ccc(F)c(Cl)c3)c2cc1OCCCN1CCOCC1 [GEFITINIB]
[24]
  Activity: 18.95%

## C#Cc1cccc(Nc2ncnc3cc4c(cc23)OCCOCCOCCO4)c1 [ICOTINIB]
[25]
  inhibition in vivo at 25 mg/kg: 15%
[26]
  IC50: > 19200 nM

## CCn1c2ccccc2c2cc(-n3nncc3-c3ccccc3)ccc21 [MBQ-167]
[27]
  Activity: 95%
[28]
  GI50: 130 nM
[29]
  Activity: 80%
[30]
  IC50: 103 nM
